Measurements reported in the NIST ThermoML archive (doi:10.1007/s10765-010-0737-5).
± gives the expanded uncertainty stated by the source.

Assay: xn = mol fraction of the nth substance listed
Conditions: Liquid; for viscosity: 101 kPa, Capillary tube (Ostwald / Ubbelohde) method; for mass density: 101.3 kPa

CCC(C)Cl (configuration not stated) [2-chlorobutane] + CC(C)OC(C)C
Conditions	mass density [kg/m3]	viscosity [mPa·s]
283.15 K, x1 = 0.0519	740.159 ± 0.9	0.3683 ± 0.004
283.15 K, x1 = 0.0988	745.897 ± 0.89	0.3716 ± 0.004
283.15 K, x1 = 0.2006	758.792 ± 0.87	0.3796 ± 0.0041
283.15 K, x1 = 0.3211	774.756 ± 0.83	0.3899 ± 0.0042
283.15 K, x1 = 0.4201	788.575 ± 0.81	0.3991 ± 0.0043
283.15 K, x1 = 0.532	804.971 ± 0.78	0.4101 ± 0.0044
283.15 K, x1 = 0.6244	819.223 ± 0.74	0.4199 ± 0.0045
283.15 K, x1 = 0.726	835.602 ± 0.71	0.431 ± 0.0046
283.15 K, x1 = 0.8163	850.907 ± 0.68	0.4413 ± 0.0046
283.15 K, x1 = 0.8817	862.411 ± 0.66	0.4489 ± 0.0047
283.15 K, x1 = 0.9634	877.39 ± 0.63	0.4587 ± 0.0048
283.15 K, x1 = 1	884.34 ± 0.61	0.4631 ± 0.0048
288.15 K, x1 = 0.0519	734.981 ± 0.92	0.3519 ± 0.0039
288.15 K, x1 = 0.0988	740.712 ± 0.9	0.3549 ± 0.0039
288.15 K, x1 = 0.2006	753.569 ± 0.88	0.3621 ± 0.004
288.15 K, x1 = 0.3211	769.483 ± 0.84	0.3713 ± 0.004
288.15 K, x1 = 0.4201	783.251 ± 0.82	0.3795 ± 0.0041
288.15 K, x1 = 0.532	799.602 ± 0.79	0.3894 ± 0.0042
288.15 K, x1 = 0.6244	813.814 ± 0.76	0.398 ± 0.0043
288.15 K, x1 = 0.726	830.144 ± 0.72	0.408 ± 0.0044
288.15 K, x1 = 0.8163	845.414 ± 0.69	0.4172 ± 0.0044
288.15 K, x1 = 0.8817	856.901 ± 0.67	0.424 ± 0.0045
288.15 K, x1 = 0.9634	871.819 ± 0.64	0.4326 ± 0.0046
288.15 K, x1 = 1	878.756 ± 0.62	0.4365 ± 0.0046
293.15 K, x1 = 0.0519	729.792 ± 0.93	0.3371 ± 0.0038
293.15 K, x1 = 0.0988	735.485 ± 0.91	0.34 ± 0.0038
293.15 K, x1 = 0.2006	748.303 ± 0.89	0.3468 ± 0.0038
293.15 K, x1 = 0.3211	764.161 ± 0.86	0.3555 ± 0.0039
293.15 K, x1 = 0.4201	777.889 ± 0.83	0.3632 ± 0.004
293.15 K, x1 = 0.532	–	0.3725 ± 0.0041
293.15 K, x1 = 0.6244	808.369 ± 0.77	0.3806 ± 0.0041
293.15 K, x1 = 0.726	824.657 ± 0.73	0.39 ± 0.0042
293.15 K, x1 = 0.8163	839.877 ± 0.7	0.3987 ± 0.0043
293.15 K, x1 = 0.8817	851.332 ± 0.68	0.4051 ± 0.0043
293.15 K, x1 = 0.9634	866.214 ± 0.65	0.4131 ± 0.0044
293.15 K, x1 = 1	873.13 ± 0.63	0.4167 ± 0.0044
298.15 K, x1 = 0.0519	724.535 ± 0.94	0.321 ± 0.0036
298.15 K, x1 = 0.0988	730.22 ± 0.93	0.3239 ± 0.0036
298.15 K, x1 = 0.2006	742.995 ± 0.9	0.3306 ± 0.0037
298.15 K, x1 = 0.3211	758.802 ± 0.87	0.3392 ± 0.0038
298.15 K, x1 = 0.4201	772.485 ± 0.84	0.3467 ± 0.0038
298.15 K, x1 = 0.532	788.75 ± 0.81	0.3559 ± 0.0039
298.15 K, x1 = 0.6244	802.882 ± 0.78	0.3639 ± 0.004
298.15 K, x1 = 0.726	819.123 ± 0.74	0.3731 ± 0.0041
298.15 K, x1 = 0.8163	834.307 ± 0.71	0.3817 ± 0.0041
298.15 K, x1 = 0.8817	845.724 ± 0.69	0.3879 ± 0.0042
298.15 K, x1 = 0.9634	860.57 ± 0.66	0.3959 ± 0.0043
298.15 K, x1 = 1	867.474 ± 0.65	0.3993 ± 0.0043
303.15 K, x1 = 0.0519	719.276 ± 0.95	0.3033 ± 0.0035
303.15 K, x1 = 0.0988	724.919 ± 0.94	0.3061 ± 0.0035
303.15 K, x1 = 0.2006	737.649 ± 0.91	0.3127 ± 0.0035
303.15 K, x1 = 0.3211	753.411 ± 0.88	0.3212 ± 0.0036
303.15 K, x1 = 0.4201	767.06 ± 0.85	0.3286 ± 0.0037
303.15 K, x1 = 0.532	783.263 ± 0.82	0.3375 ± 0.0038
303.15 K, x1 = 0.6244	797.355 ± 0.79	0.3454 ± 0.0038
303.15 K, x1 = 0.726	813.555 ± 0.76	0.3545 ± 0.0039
303.15 K, x1 = 0.8163	828.698 ± 0.72	0.3628 ± 0.004
303.15 K, x1 = 0.8817	840.084 ± 0.7	0.369 ± 0.004
303.15 K, x1 = 0.9634	854.895 ± 0.67	0.3767 ± 0.0041
303.15 K, x1 = 1	861.779 ± 0.66	0.38 ± 0.0041
308.15 K, x1 = 0.0519	713.939 ± 0.96	0.2887 ± 0.0033
308.15 K, x1 = 0.0988	719.569 ± 0.95	0.2915 ± 0.0034
308.15 K, x1 = 0.2006	732.261 ± 0.92	0.2977 ± 0.0034
308.15 K, x1 = 0.3211	747.973 ± 0.89	0.3058 ± 0.0035
308.15 K, x1 = 0.4201	761.571 ± 0.86	0.3127 ± 0.0035
308.15 K, x1 = 0.532	777.737 ± 0.83	0.3212 ± 0.0036
308.15 K, x1 = 0.6244	791.784 ± 0.8	0.3287 ± 0.0037
308.15 K, x1 = 0.726	807.944 ± 0.77	0.3374 ± 0.0038
308.15 K, x1 = 0.8163	823.046 ± 0.74	0.3453 ± 0.0038
308.15 K, x1 = 0.8817	834.402 ± 0.71	0.3511 ± 0.0039
308.15 K, x1 = 0.9634	849.179 ± 0.68	0.3584 ± 0.0039
308.15 K, x1 = 1	856.044 ± 0.67	0.3615 ± 0.004
313.15 K, x1 = 0.0519	708.573 ± 0.97	0.2752 ± 0.0032
313.15 K, x1 = 0.0988	714.181 ± 0.96	0.2779 ± 0.0033
313.15 K, x1 = 0.2006	726.833 ± 0.93	0.2838 ± 0.0033
313.15 K, x1 = 0.3211	742.484 ± 0.9	0.2914 ± 0.0034
313.15 K, x1 = 0.4201	756.049 ± 0.87	0.2981 ± 0.0034
313.15 K, x1 = 0.532	772.166 ± 0.84	0.3062 ± 0.0035
313.15 K, x1 = 0.6244	786.18 ± 0.81	0.3133 ± 0.0036
313.15 K, x1 = 0.726	802.287 ± 0.78	0.3215 ± 0.0036
313.15 K, x1 = 0.8163	817.349 ± 0.75	0.329 ± 0.0037
313.15 K, x1 = 0.8817	828.683 ± 0.72	0.3345 ± 0.0037
313.15 K, x1 = 0.9634	843.42 ± 0.69	0.3413 ± 0.0038
313.15 K, x1 = 1	850.266 ± 0.68	0.3443 ± 0.0038
